Measurements published in patent US20080153907A1, “Pharmaceutical Composition for the Treatment of Cancer Comprising Lhm-Ra Complex” (NANOHYBRID CO., LTD., priority 2005, published 2008).

Key:
[1] = system: CHX tumor cells; assay: Activity of lactic acid dehydrogenase associated with apoptotic cell death; assay type: cell-based; details: 250 μg/ml of RA, 12 hours
Procedure: In order to evaluate an anticancer effect of a LDH-RA hybrid obtained according the present invention, activity of lactic acid dehydrogenase associated with apoptotic cell death was measured. For this, the CHX tumor cells were seeded into each well of a 96-well plate. The CHX tumor cells were divided into 6 groups: normal group with no treatment, LDH-dose group with 1,000 μg/ml of LDH, RA-dose group with 250 μg/ml of RA, LDH-RA low-dose group with 25 μg/ml of LDH-RA, LDH-RA mid-dose group with 50 μg/ml of LDH-RA, and LDH-RA high-dose group with 100 μg/ml of LDH-RA. All groups were cultured for 12 hours. 20 μl of pyruvate substrate (NADH 1 mg/ml) was added to each group, and the cultures were mixed at room temperature for 2 minutes and stirred at 37° C. for 30 minutes. 20 μl of a color reagent (Sigma 505-2) was added to each culture, and the resultant cultures were mixed at room temperature for 20 minutes. 100 μg of 0.4N NaOH was added to each culture, and the resultant cultures were mixed at room temperature for 15 minutes. Referring to FIG. 9, the activities of lactic acid dehydrogenase of the normal group, the LDH-dose group, and the RA-dose group were 6±1.5%, 13±2%, and 42±5%, respectively. The activities of lactic acid dehydrogenase of the LDH-RA low-dose group, the LDH-RA mid-dose group, and the LDH-RA high-dose group were 41±2%, 76±6%, and 86±5%, respectively. […]

[2] = system: CHX tumor cells; assay: Tumor development in xenografted nude mice (tumor size); assay type: in vivo, athymic nude mice; details: RA 0.5 mg/ml, LDH-RA 50 μg/ml, every two weeks for 8 weeks; control tumor 30 mm after 8 weeks
Procedure: (§1) The CHX tumor cells were collected at 1×10^7 cells/well and administered subcutaneously to the hind legs of athymic nude mice. Appearance of tumor mass was observed every week. Tumor masses appeared 3 weeks after the subcutaneous administration, and, when a tumor size was increased to 5 mm, one group of the mice was untreated (control group), and the other groups of the mice were treated as follows: a LDH-dose group with LDH (1 mg/ml), a RA-dose group with RA (0.5 mg/ml), and a LDH-RA dose group with LDH-RA (50 μg/ml). The LDH-dose group, the RA-dose group, and the LDH-RA dose group were further treated with LDH, RA, and LDH-RA, respectively, every two weeks for 8 weeks. Referring to FIG. 12, in the control group, a tumor size was increased to 30 mm after 8 weeks. […] In the RA-dose group, a tumor size was reduced by about 20%. In the LDH-RA dose group, a tumor size was reduced by 80% or more. After then, the mice were anesthetized. Tumor tissues were cut, fixed in formalin, and cut into sections (5 μm thick) on a microtome. The sections were stained with hematoxylin/eosin (H/E) and examined with a microscope (50× magnification), and the results are shown in FIG. 13. Referring to FIG. 13, in the control group, tumor masses were found in almost all tissues, thereby causing growth retardation of tumor, resulting in necrosis. […]

[3] = system: CHX tumor cells; assay: H/E staining of tumor tissues from xenografted nude mice; assay type: in vivo, athymic nude mice; details: RA 0.5 mg/ml, every two weeks for 8 weeks
Procedure: as §1

For `CC1=C(/C=C/C(C)=C/C=C/C(C)=C/C(=O)O)C(C)(C)CCC1` [RA, retinoic acid], which “activity of lactic acid dehydrogenase” value [1] is on record?
Its value is 42±5%.

What about the “tumor size reduced by” value [2] of the same compound?
Its value is “about 20%”.

And the “reduction in tumor tissues (H/E staining)” value [3]?
The value was 15%.
